Test results from paper PMC3849266, “In Vitro and In Vivo Evaluation of a ^18F-Labeled High Affinity NOTA Conjugated Bombesin Antagonist as a PET Ligand for GRPR-Targeted Tumor Imaging” (PLoS ONE, 2013).
Entries after “also recorded” stand apart in the source; their conditions may differ. Read-outs that look alike come from different tables or passages of the source.

Key:
[1] = Biodistribution and in vivo binding specificity in NMRI mice; conditions: mouse, iv, total radioactivity, male NMRI mice, 45 pmol i.v., 1 h p.i.
Source text: (§1) All animal studies were planned and performed in accordance with the national legislation on the protection of laboratory animals and the Ethic Committee for Animal Research of the Uppsala University approved the study plans. Randomly divided groups of 4 mice per data point were used in all experiments. […] BALB/c nu/nu male mice with PC-3 xenografts (weight 20±1 g at the time of the experiment) were used for tumor targeting and imaging studies. The tumors were grafted by subcutaneous injection of PC-3 cells (10^7 cells/mouse) into the right hind legs 3 weeks before the experiment. The average tumor size was 0.42±0.05 g at the time of the experiment.
(§2) The mice were euthanized 1 h post-injection (p.i.) by intraperitoneal administration of Ketalar-Rompun solution (10 mg/mL Ketalar and 1 mg/mL Rompun; 20 µL of solution per gram of body weight). Blood samples were collected by cardiac puncture. The organs of interest were collected, weighed and their radioactivity was measured. The organ uptake values were expressed as a percentage of the injected dose per gram of tissue (%ID/g) except for the gastrointestinal tract (GI) and carcass, which were expressed as %ID per whole sample.

murine GRPRs = molecular target: T1, murine GRPRs (Mus musculus, UniProt P21729); experiment: as above; conditions: iv, total radioactivity, male NMRI mice, 45 pmol i.v., 1 h p.i.
T1 construct: from tissue; host or cells: organs of male NMRI mice, in vivo (pancreas, stomach, small intestine and others)
Source text: as §1, §2

[2] = Labeling stability in murine serum (SDS-PAGE); format: in vitro ADME; conditions: 37 °C, 1 h
Description: The labeling stability was evaluated using SDS-PAGE analysis (200 V constant) on NuPAGE 4–12% bis-Tris gels (Invitrogen) with the aims to check the release of fluorine-18, transchelation of [^18F]AlF to serum proteins, and cleavage of labeled protein by peptidases. […] After incubation, the samples were treated with NuPAGE® LDS Sample Buffer according to the manufacturer’s instructions and finally 0.05 nmol of sample loaded on the gel. Na^18F-sodium fluoride was loaded in a separate lane as a low molecular weight internal reference.

[3] = Biodistribution and in vivo binding specificity in PC-3 tumor-bearing BALB/c nu/nu mice; conditions: mouse, iv, total radioactivity, male BALB/c nu/nu mice with PC-3 xenografts, 45 pmol i.v.; for tissue uptake at 1 h / tissue uptake at 6 h / tissue uptake at 3 h: male, BALB/c nu/nu; for tissue uptake at 1 h / tissue uptake dose at 1 h: 1 h p.i.; for tissue uptake at 6 h / tissue uptake dose at 6 h: 6 h p.i.; for tissue uptake at 3 h / tissue uptake dose at 3 h: 3 h p.i.
Source text: as §1
(§3) The mice were sacrificed at 1, 3 and 6 h p.i. to determine the uptake in tumors and other receptor-positive organs. A group of animals was co-injected with an excess of non-labeled peptide (20 nmol) and sacrificed 1 h p.i. The blood and other organs of interest were collected and treated as described above.

PC-3 xenografts = experiment: as above
Source text: as §1, §3

[4] = carcass (whole sample), read-out: Carcass uptake
[5] = carcass (whole sample), blocked (co-injected 20 nmol non-labeled peptide), read-out: Carcass uptake
[6] = gastrointestinal tract (whole sample), read-out: GI tract uptake
[7] = gastrointestinal tract (whole sample), blocked (co-injected 20 nmol non-labeled peptide), read-out: GI tract uptake
[8] = blood, blocked (co-injected 20 nmol non-labeled peptide), read-out: Blood uptake
[9] = bone, blocked (co-injected 20 nmol non-labeled peptide), read-out: Bone uptake
[10] = kidney, blocked (co-injected 20 nmol non-labeled peptide), read-out: Kidney uptake
[11] = liver, blocked (co-injected 20 nmol non-labeled peptide), read-out: Liver uptake
[12] = lung, blocked (co-injected 20 nmol non-labeled peptide), read-out: Lung uptake
[13] = muscle, blocked (co-injected 20 nmol non-labeled peptide), read-out: Muscle uptake
[14] = pancreas, blocked (co-injected 20 nmol non-labeled peptide), read-out: Pancreas uptake
[15] = small intestine, blocked (co-injected 20 nmol non-labeled peptide), read-out: Small intestine uptake
[16] = spleen, blocked (co-injected 20 nmol non-labeled peptide), read-out: Spleen uptake
[17] = stomach, blocked (co-injected 20 nmol non-labeled peptide), read-out: Stomach uptake
[18] = blood, 45 pmol, read-out: Blood uptake
[19] = bone, 45 pmol, read-out: Bone uptake
[20] = kidney, 45 pmol, read-out: Kidney uptake
[21] = liver, 45 pmol, read-out: Liver uptake
[22] = lung, 45 pmol, read-out: Lung uptake
[23] = muscle, 45 pmol, read-out: Muscle uptake
[24] = pancreas, 45 pmol, read-out: Pancreas uptake
[25] = small intestine, 45 pmol, read-out: Small intestine uptake
[26] = spleen, 45 pmol, read-out: Spleen uptake
[27] = stomach, 45 pmol, read-out: Stomach uptake
[28] = tumor (PC-3 xenograft), 45 pmol, read-out: Tumor uptake
[29] = male BALB/c nu/nu mice with PC-3 xenografts, 45 pmol i.v., 3 h p.i.

T1 sequence (P21729 whole entry): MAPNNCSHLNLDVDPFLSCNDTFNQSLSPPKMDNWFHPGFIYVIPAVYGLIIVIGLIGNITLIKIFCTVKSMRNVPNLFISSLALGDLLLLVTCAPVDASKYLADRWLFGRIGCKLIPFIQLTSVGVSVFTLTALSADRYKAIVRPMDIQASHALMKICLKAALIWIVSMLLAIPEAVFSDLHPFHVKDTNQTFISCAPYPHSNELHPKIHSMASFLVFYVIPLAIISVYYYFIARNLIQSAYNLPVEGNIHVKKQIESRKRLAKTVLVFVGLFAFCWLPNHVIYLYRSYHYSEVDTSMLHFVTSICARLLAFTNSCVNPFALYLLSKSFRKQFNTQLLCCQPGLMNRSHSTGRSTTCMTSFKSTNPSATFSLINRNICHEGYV

- tissue uptake dose at 1 h [1, 4]: 5 ± 2 %ID
- tissue uptake dose at 1 h [1, 5]: 5 ± 1 %ID
- tissue uptake dose at 1 h [1, 6]: 11 ± 3 %ID
- tissue uptake dose at 1 h [1, 7]: 5 ± 1 %ID
- tissue uptake at 1 h (murine GRPRs; blood, read-out: Blood uptake): 0.3 ± 0.1 %ID/g
- tissue uptake at 1 h (murine GRPRs; [8]): 0.3 ± 0.1 %ID/g
- tissue uptake at 1 h (murine GRPRs; bone, read-out: Bone uptake): 0.3 ± 0.2 %ID/g
- tissue uptake at 1 h (murine GRPRs; [9]): 0.2 ± 0.1 %ID/g
- tissue uptake at 1 h (murine GRPRs; kidney, read-out: Kidney uptake): 2.8 ± 0.5 %ID/g
- tissue uptake at 1 h (murine GRPRs; [10]): 3.4 ± 0.8 %ID/g
- tissue uptake at 1 h (murine GRPRs; liver, read-out: Liver uptake): 1.2 ± 0.3 %ID/g
- tissue uptake at 1 h (murine GRPRs; [11]): 1.4 ± 0.4 %ID/g
- tissue uptake at 1 h (murine GRPRs; lung, read-out: Lung uptake): 0.3 ± 0.2 %ID/g
- tissue uptake at 1 h (murine GRPRs; [12]): 0.3 ± 0.1 %ID/g
- tissue uptake at 1 h (murine GRPRs; muscle, read-out: Muscle uptake): 0.09 ± 0.03 %ID/g
- tissue uptake at 1 h (murine GRPRs; [13]): 0.08 ± 0.03 %ID/g
- tissue uptake at 1 h (murine GRPRs; pancreas, read-out: Pancreas uptake): 14 ± 6 %ID/g
- tissue uptake at 1 h (murine GRPRs; [14]): 0.4 ± 0.1 %ID/g
- tissue uptake at 1 h (murine GRPRs; small intestine, read-out: Small intestine uptake): 4 ± 2 %ID/g
- tissue uptake at 1 h (murine GRPRs; [15]): 1.7 ± 0.7 %ID/g
- tissue uptake at 1 h (murine GRPRs; spleen, read-out: Spleen uptake): 0.6 ± 0.3 %ID/g
- tissue uptake at 1 h (murine GRPRs; [16]): 0.16 ± 0.08 %ID/g
- tissue uptake at 1 h (murine GRPRs; stomach, read-out: Stomach uptake): 2 ± 1 %ID/g
- tissue uptake at 1 h (murine GRPRs; [17]): 0.3 ± 0.1 %ID/g
- tissue uptake at 1 h [3, 18]: 0.48 ± 0.08 %ID/g
- tissue uptake at 6 h [3, 18]: 0.023 ± 0.001 %ID/g
- tissue uptake at 1 h [3, 8]: 0.4 ± 0.2 %ID/g
- tissue uptake at 1 h [3, 19]: 0.3 ± 0.08 %ID/g
- tissue uptake at 3 h [3, 19]: 0.17 ± 0.08 %ID/g
- tissue uptake at 6 h [3, 19]: 0.22 ± 0.08 %ID/g
- tissue uptake at 1 h [3, 9]: 0.2 ± 0.2 %ID/g
- tissue uptake at 1 h [3, 20]: 3.6 ± 0.3 %ID/g
- tissue uptake at 3 h [3, 20]: 1.74 ± 0.25 %ID/g
- tissue uptake at 6 h [3, 20]: 0.27 ± 0.06 %ID/g
- tissue uptake at 1 h [3, 10]: 3.9 ± 0.8 %ID/g
- tissue uptake at 1 h [3, 21]: 1.9 ± 0.4 %ID/g
- tissue uptake at 3 h [3, 21]: 0.45 ± 0.21 %ID/g
- tissue uptake at 6 h [3, 21]: 0.1 ± 0.02 %ID/g
- tissue uptake at 1 h [3, 11]: 1.6 ± 0.3 %ID/g
- tissue uptake at 1 h [3, 22]: 0.36 ± 0.06 %ID/g
- tissue uptake at 3 h [3, 22]: 0.2 ± 0.2 %ID/g
- tissue uptake at 6 h [3, 22]: 0.11 ± 0.08 %ID/g
- tissue uptake at 1 h [3, 12]: 0.4 ± 0.3 %ID/g
- tissue uptake at 1 h [3, 23]: 0.1 ± 0.03 %ID/g
- tissue uptake at 3 h [3, 23]: 0.03 ± 0.01 %ID/g
- tissue uptake at 6 h [3, 23]: 0.02 ± 0.01 %ID/g
- tissue uptake at 1 h [3, 13]: 0.09 ± 0.04 %ID/g
- tissue uptake at 1 h [3, 24]: 13 ± 2 %ID/g
- tissue uptake at 3 h [3, 24]: 2.7 ± 0.7 %ID/g
- tissue uptake at 1 h [3, 14]: 0.3 ± 0.2 %ID/g
- tissue uptake at 1 h [3, 25]: 4 ± 2 %ID/g
- tissue uptake at 3 h [3, 25]: 0.88 ± 0.39 %ID/g
- tissue uptake at 6 h [3, 25]: 0.13 ± 0.06 %ID/g
- tissue uptake at 1 h [3, 15]: 2.6 ± 0.9 %ID/g
- tissue uptake at 1 h [3, 26]: 1 ± 0.2 %ID/g
- tissue uptake at 3 h [3, 26]: 0.1 ± 0.03 %ID/g
- tissue uptake at 6 h [3, 26]: 0.15 ± 0.08 %ID/g
- tissue uptake at 1 h [3, 16]: 0.7 ± 0.2 %ID/g
- tissue uptake at 1 h [3, 27]: 2.4 ± 0.4 %ID/g
- tissue uptake at 3 h [3, 27]: 1.37 ± 0.35 %ID/g
- tissue uptake at 6 h [3, 27]: 0.33 ± 0.08 %ID/g
- tissue uptake at 1 h [3, 17]: 0.4 ± 0.1 %ID/g
- tissue uptake at 1 h [3, 28]: 6.3 ± 0.9 %ID/g
- tissue uptake at 3 h [3, 28]: 5.5 ± 0.7 %ID/g
- tissue uptake at 6 h [3, 28]: 2.3 ± 0.7 %ID/g
- tissue uptake at 1 h ([3]; tumor (PC-3 xenograft), blocked (co-injected 20 nmol non-labeled peptide), read-out: Tumor uptake): 0.8 ± 0.2 %ID/g
- tissue uptake dose at 1 h [3, 4]: 6 ± 1 %ID
- tissue uptake dose at 3 h [3, 4]: 3.8 ± 0.3 %ID
- tissue uptake dose at 6 h [3, 4]: 0.8 ± 0.2 %ID
- tissue uptake dose at 1 h [3, 5]: 4 ± 1 %ID
- tissue uptake dose at 1 h [3, 6]: 6.1 ± 0.8 %ID
- tissue uptake dose at 3 h [3, 6]: 5.2 ± 0.4 %ID
- tissue uptake dose at 6 h [3, 6]: 3 ± 0.1 %ID
- tissue uptake dose at 1 h [3, 7]: 4.8 ± 0.3 %ID
- decrease of tumor uptake by co-injection of non-labeled peptide (PC-3 xenografts; PC-3 xenografted mice, 1 h p.i., 20 nmol non-labeled peptide): more than 8 fold
- Stomach uptake (PC-3 xenografts; [29]): 1.4±0.4 %ID/g
- Tumor uptake (PC-3 xenografts; [29]): 5.53±0.75 %ID/g
Structure (SMILES): CC(C)C[C@H](NC(=O)C[C@H](O)[C@H](CC(C)C)NC(=O)[C@H](Cc1c[nH]cn1)NC(=O)CNC(=O)[C@@H](NC(=O)[C@H](C)NC(=O)[C@H](Cc1c[nH]c2ccccc12)NC(=O)[C@H](CCC(N)=O)NC(=O)[C@@H](Cc1ccccc1)NC(=O)COCCOCCNC(=O)CN1CCN(CC(=O)O)CCN(CC(=O)O)CC1)C(C)C)C(N)=O [[^18F]AlF-NOTA-P2-RM26]
- stability in murine serum [2]: stable; also recorded: single radioactivity peak
